Assay results reported in the NIST ThermoML archive (doi:10.1016/j.jct.2018.11.015).
Numbers after ± are expanded uncertainties.

Settings: Liquid

SMILES | vapor or sublimation pressure (313.15 K, Transpiration method) [kPa] | vapor or sublimation pressure (333.15 K, Transpiration method) [kPa] | vapor or sublimation pressure (350.9 K, Closed cell (Static) method) [kPa] | vapor or sublimation pressure (353.15 K, Transpiration method) [kPa] | vapor or sublimation pressure (361.52 K, Closed cell (Static) method) [kPa] | vapor or sublimation pressure (371.6 K, Closed cell (Static) method) [kPa] | vapor or sublimation pressure (373.15 K, Transpiration method) [kPa] | vapor or sublimation pressure (381.69 K, Closed cell (Static) method) [kPa] | vapor or sublimation pressure (391.77 K, Closed cell (Static) method) [kPa] | vapor or sublimation pressure (393.15 K, Transpiration method) [kPa] | vapor or sublimation pressure (401.71 K, Closed cell (Static) method) [kPa] | vapor or sublimation pressure (411.72 K, Closed cell (Static) method) [kPa] | vapor or sublimation pressure (421.57 K, Closed cell (Static) method) [kPa] | vapor or sublimation pressure (423.15 K, Transpiration method) [kPa] | vapor or sublimation pressure (343.15 K, Transpiration method) [kPa]
COC(=O)c1ccccc1C(=O)OC [dimethyl 1,2-benzenedicarboxylate] | 0.00141 ± 0.00023 | 0.00789 ± 0.00067 | 0.0297 ± 0.0019 | 0.0332 ± 0.0022 | 0.0589 ± 0.0037 | 0.1104 ± 0.0069 | 0.122 ± 0.007 | 0.1986 ± 0.012 | 0.3453 ± 0.021 | 0.391 ± 0.024 | 0.5751 ± 0.035 | 0.9413 ± 0.038 | 1.491 ± 0.06 | 1.668 ± 0.09 | 
CCCCOC(=O)c1ccccc1C(=O)OCc1ccccc1 [benzyl butyl 1,2-benzenedioate] |  |  |  | 5.6e-05 ± 9e-06 |  |  | 0.00039 ± 5e-05 |  |  | 0.0022 ± 0.00031 |  |  |  | 0.0238 ± 0.0034 | 1.4e-05 ± 2e-06
